In this test the target is T1, BRM (Homo sapiens, UniProt P51531).
T1 construct: In-Cell Western Screen of BRM Degradation in SW1573 Cells; endogenous in cells; host or cells: SW1573
Put plainly: In-cell Western screen of BRM degradation in SW1573 cells (Dmax and DC50). Type of test: cell-based. Here is the method: In-Cell Western Screen of BRM Degradation in SW1573 Cells
To assess BRM degradation (Dmax and DC50), cells were seeded at 8000/well in 96-well black/clear-bottom plates in 180 μL DMEM growth media (containing 1% pen-strep, 1% HEPES and 10% FBS) per well. Plates were incubated overnight to allow adhesion. The next morning cells were treated by adding 20 μL of 10× compound (1% DMSO) to appropriate wells and returned to incubator for overnight (18-20 hours). The final DMSO concentration was 0.1%.
For processing, the plates were removed from incubator, the media was removed, and immediately 200 μL of cold (4° C.) DPBS was added to all wells. DPBS was then removed, and 50 μL of 4% paraformaldehyde (PFA) in DPBS (4° C.) was added to all wells, and the plates were incubated at room temperature for 20 minutes. PFA was then removed, and 200 μL of TBS-T containing 0.5% Triton X-100 was added to all wells, and the plates were incubated at room temperature for 30 minutes. TBS-T containing 0.5% Triton X-100 was then removed, and 50 μL of Li-Cor blocking solution was added, and the plates were incubated at room temperature for a minimum of one hour.
The next day plates were washed three times with TBS-T, 200 μL per well. Fifty (50) μL of secondary antibody cocktail in LI-COR blocking solution (anti-rabbit_800 nm and anti-mouse_680 nm) was added to all wells (diluted 1:5000). The plates were incubated at room temperature for at least one hour while protected from light. The plates were washed twice with TBS-T, 200 μL per well.
To read each plate TBS-T was removed, and each plate was inverted tapped on a paper towel. The plates were read on the LI-COR Odyssey with default intensity settings of 5.0 for both channels. LI-COR images were analyzed with the in-cell Western feature of Image Studio Lite.

The mark [1] stands for this setting: degradation of BRM, read-out: BRM DC50.
The mark [2] stands for this setting: BRM degradation, SW1573 cells, Table 2D, read-out: *DC50.
Where [3] appears, read: BRM degradation, SW1573 cells, read-out: DC50.
[4] abbreviates: BRM degradation, SW1573 cells, read-out: Dmax (% degraded).

Molecules are shown by their SMILES. Read-outs that look alike come from different tables or passages of the source.

T1 sequence (P51531 whole entry): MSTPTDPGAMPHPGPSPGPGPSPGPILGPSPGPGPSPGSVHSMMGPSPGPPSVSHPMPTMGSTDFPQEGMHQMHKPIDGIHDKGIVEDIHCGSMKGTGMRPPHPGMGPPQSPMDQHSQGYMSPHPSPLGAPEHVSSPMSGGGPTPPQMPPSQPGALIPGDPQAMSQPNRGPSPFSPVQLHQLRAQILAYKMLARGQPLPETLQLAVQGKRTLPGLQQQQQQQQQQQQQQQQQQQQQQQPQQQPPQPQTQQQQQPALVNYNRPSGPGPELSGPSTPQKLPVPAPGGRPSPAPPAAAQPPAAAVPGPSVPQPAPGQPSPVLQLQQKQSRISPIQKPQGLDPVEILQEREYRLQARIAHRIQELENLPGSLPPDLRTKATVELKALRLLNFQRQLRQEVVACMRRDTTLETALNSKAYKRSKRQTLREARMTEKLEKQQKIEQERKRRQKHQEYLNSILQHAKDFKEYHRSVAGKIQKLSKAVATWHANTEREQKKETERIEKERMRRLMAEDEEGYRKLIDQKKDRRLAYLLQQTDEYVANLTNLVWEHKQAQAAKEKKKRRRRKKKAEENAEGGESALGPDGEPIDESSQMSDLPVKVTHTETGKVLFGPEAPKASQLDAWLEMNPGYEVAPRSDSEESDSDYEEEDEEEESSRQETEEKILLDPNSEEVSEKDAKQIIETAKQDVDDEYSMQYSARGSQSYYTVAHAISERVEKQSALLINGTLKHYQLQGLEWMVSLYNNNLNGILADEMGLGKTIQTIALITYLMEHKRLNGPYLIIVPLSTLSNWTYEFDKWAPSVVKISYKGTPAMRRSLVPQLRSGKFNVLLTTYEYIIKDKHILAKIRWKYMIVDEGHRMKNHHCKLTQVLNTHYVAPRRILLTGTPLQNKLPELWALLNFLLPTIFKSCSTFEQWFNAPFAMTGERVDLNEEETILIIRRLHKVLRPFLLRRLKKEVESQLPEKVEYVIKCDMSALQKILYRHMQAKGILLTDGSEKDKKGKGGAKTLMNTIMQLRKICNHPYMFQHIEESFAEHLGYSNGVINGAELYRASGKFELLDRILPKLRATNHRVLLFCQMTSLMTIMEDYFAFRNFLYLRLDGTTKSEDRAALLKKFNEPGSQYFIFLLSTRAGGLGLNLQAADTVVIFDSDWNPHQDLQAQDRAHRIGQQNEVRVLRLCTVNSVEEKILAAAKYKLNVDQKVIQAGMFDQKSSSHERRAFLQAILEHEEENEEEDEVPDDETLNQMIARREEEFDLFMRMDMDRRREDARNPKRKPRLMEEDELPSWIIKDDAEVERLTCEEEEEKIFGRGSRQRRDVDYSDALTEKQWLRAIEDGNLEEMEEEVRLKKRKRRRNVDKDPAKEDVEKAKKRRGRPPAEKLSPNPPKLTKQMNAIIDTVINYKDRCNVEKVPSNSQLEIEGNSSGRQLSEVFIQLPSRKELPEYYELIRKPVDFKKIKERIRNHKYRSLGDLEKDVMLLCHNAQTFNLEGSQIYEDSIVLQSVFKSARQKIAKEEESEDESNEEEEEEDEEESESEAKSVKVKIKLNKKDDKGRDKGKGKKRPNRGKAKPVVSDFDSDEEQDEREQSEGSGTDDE

Regarding `Cc1ncsc1-c1ccc([C@H](C)NC(=O)[C@@H]2C[C@@H](O)CN2C(=O)[C@H](c2cc(OCCC3(O)CCN(C[C@H]4C[C@H](Oc5cc(N6C7CC[C@@H]6CN(c6cc(-c8ccccc8O)nnc6N)C7)ccn5)C4)CC3)no2)C(C)C)cc1` [compound 435, (2S,4R)-1-((2S)-2-(3-(2-(1-(((1r,3S)-3-((4-(3-(3-amino-6-(2-hydroxyphenyl)pyridazin-4-yl)-3,8-diazabicyclo[3.2.1]octan-8-yl)pyridin-2-yl)oxy)cyclobutyl)methyl)-4-hydroxypiperidin-4-yl)ethoxy)isoxazol-5-yl)-3-methylbutanoyl)-4-hydroxy-N-((S)-1-(4-(4-methylthiazol-5-yl)phenyl)ethyl)pyrrolidine-2-carboxamide], the “BRM Dmax (%)” value (% degraded, when tested at the top concentration of between 0.3 and 10 μM) is given as “A (A > 75)”. Further, under setting [1], the DC50 – broadly, the concentration giving 50% degradation – is less than 2.5 nM. As for `Cc1ncsc1-c1ccc([C@H](C)NC(=O)[C@@H]2C[C@@H](O)CN2C(=O)[C@@H](c2cc(OCCC3(O)CCN(C[C@H]4C[C@H](Oc5cc(N6C7CCC6CN(c6cc(-c8ccccc8O)nnc6N)C7)ccn5)C4)CC3)no2)C(C)C)cc1` [compound 436, (2S,4R)-1-((2R)-2-(3-(2-(1-(((1r,3R)-3-((4-(3-(3-amino-6-(2-hydroxyphenyl)pyridazin-4-yl)-3,8-diazabicyclo[3.2.1]octan-8-yl)pyridin-2-yl)oxy)cyclobutyl)methyl)-4-hydroxypiperidin-4-yl)ethoxy)isoxazol-5-yl)-3-methylbutanoyl)-4-hydroxy-N-((S)-1-(4-(4-methylthiazol-5-yl)phenyl)ethyl)pyrrolidine-2-carboxamide], the maximal degradation (Dmax) (in general, the greatest extent of degradation seen) (SW1573, % degraded, when tested at the top concentration of between 0.3 and 10 μM, read-out: BRM Dmax (%)) is greater than 75%. Under setting [1], the DC50 was less than 2.5 nM. For `Cc1ncsc1-c1ccc([C@H](C)NC(=O)[C@@H]2C[C@@H](O)CN2C(=O)[C@@H](c2cc(N3CCC(OC4CCN([C@H]5C[C@H](CN6CCOC7(CCN(c8cc(-c9ccccc9O)nnc8N)CC7)C6)C5)CC4)CC3)no2)C(C)C)cc1` [compound 616, (2S,4R)-1-((R)-2-(3-(4-((1-((1r,3R)-3-((9-(3-amino-6-(2-hydroxyphenyl)pyridazin-4-yl)-1-oxa-4,9-diazaspiro[5.5]undecan-4-yl)methyl)cyclobutyl)piperidin-4-yl)oxy)piperidin-1-yl)isoxazol-5-yl)-3-methylbutanoyl)-4-hydroxy-N-((S)-1-(4-(4-methylthiazol-5-yl)phenyl)ethyl)pyrrolidine-2-carboxamide], the maximal degradation (Dmax) (BRM degradation, SW1573 cells, Table 2D, read-out: **Dmax (%) (% degraded)) was greater than 75%. Besides, under setting [2], the DC50 was less than 2.5 nM. As to `Cc1ncsc1-c1ccc([C@H](C)NC(=O)[C@H]2C[C@H](O)CN2C(=O)C(c2cc(OCCN3CCC(O[C@H]4C[C@H](Oc5cc(N6C7CCC6CN(c6cc(-c8ccccc8O)nnc6N)C7)ccn5)C4)CC3)no2)C(C)C)cn1` (stereo partly drawn) [compound 254, (2R,4S)-1-(2-(3-(2-(4-((1r,3r)-3-((4-(3-(3-amino-6-(2-hydroxyphenyl)pyridazin-4-yl)-3,8-diazabicyclo[3.2.1]octan-8-yl)pyridin-2-yl)oxy)cyclobutoxy)piperidin-1-yl)ethoxy)isoxazol-5-yl)-3-methylbutanoyl)-4-hydroxy-N-((S)-1-(6-(4-methylthiazol-5-yl)pyridin-3-yl)ethyl)pyrrolidine-2-carboxamide], the DC50 under setting [3] is greater than 30 nM. `Cc1ncsc1-c1ccc([C@H](C)NC(=O)[C@@H]2C[C@@H](O)CN2C(=O)[C@H](c2cc(OCCN3CCC(O[C@H]4C[C@H](Oc5cc(N6C7CCC6CN(c6cc(-c8ccccc8O)nnc6N)C7)ccn5)C4)CC3)no2)C(C)C)cc1F` [compound 252, (2S,4R)-1-((2S)-2-(3-(2-(4-((1r,3S)-3-((4-(3-(3-amino-6-(2-hydroxyphenyl)pyridazin-4-yl)-3,8-diazabicyclo[3.2.1]octan-8-yl)pyridin-2-yl)oxy)cyclobutoxy)piperidin-1-yl)ethoxy)isoxazol-5-yl)-3-methylbutanoyl)-N-((S)-1-(3-fluoro-4-(4-methylthiazol-5-yl)phenyl)ethyl)-4-hydroxypyrrolidine-2-carboxamide]: the half-maximal degradation concentration (DC50) under setting [3] was greater than 30 nM. In addition, under “BRM degradation, SW1573 cells, tested at the top concentration of between 0.3 and 10 μM, read-out: Dmax (%) (% degraded)”, the maximal degradation (Dmax) is greater than 75%.

In the case of `Cc1ncsc1-c1cnc([C@H](C)NC(=O)[C@@H]2C[C@@H](O)CN2C(=O)[C@H](c2cc(N3CCC(CN4CCC(O[C@H]5C[C@H](Oc6cc(N7C8CCC7CN(c7cc(-c9ccccc9O)nnc7N)C8)ccn6)C5)CC4)CC3)no2)C(C)C)cn1` [compound 589, (2S,4R)-1-((2S)-2-(3-(4-((4-((1r,3r)-3-((4-(3-(3-amino-6-(2-hydroxyphenyl)pyridazin-4-yl)-3,8-diazabicyclo[3.2.1]octan-8-yl)pyridin-2-yl)oxy)cyclobutoxy)piperidin-1-yl)methyl)piperidin-1-yl)isoxazol-5-yl)-3-methylbutanoyl)-4-hydroxy-N-((S)-1-(5-(4-methylthiazol-5-yl)pyrazin-2-yl)ethyl)pyrrolidine-2-carboxamide], the 50% degradation concentration (DC50) under setting [2] is greater than 30 nM.

Regarding `Cc1ncsc1-c1ccc([C@H](C)NC(=O)[C@@H]2C[C@@H](O)CN2C(=O)[C@H](c2cc(N3CCC(CN4CCC(O[C@H]5C[C@H](Oc6cc(N7C8CCC7CN(c7cc(-c9ccccc9O)nnc7N)C8)ccn6)C5)CC4)CC3)no2)C(C)C)cc1F` [compound 651, (2S,4R)-1-((2S)-2-(3-(4-((4-((1r,3r)-3-((4-(3-(3-amino-6-(2-hydroxyphenyl)pyridazin-4-yl)-3,8-diazabicyclo[3.2.1]octan-8-yl)pyridin-2-yl)oxy)cyclobutoxy)piperidin-1-yl)methyl)piperidin-1-yl)isoxazol-5-yl)-3-methylbutanoyl)-N-((S)-1-(3-fluoro-4-(4-methylthiazol-5-yl)phenyl)ethyl)-4-hydroxypyrrolidine-2-carboxamide], under setting [3], the DC50 was greater than 30 nM. For `Cc1cnnn1-c1ccc([C@H](C)NC(=O)[C@@H]2C[C@@H](O)CN2C(=O)[C@H](c2cc(OCCN3CCN(CCOc4cc(N5C6CCC5CN(c5cc(-c7ccccc7O)nnc5N)C6)ccn4)CC3)no2)C(C)C)cc1` [compound 274, (2S,4R)-1-((2S)-2-(3-(2-(4-(2-((4-(3-(3-amino-6-(2-hydroxyphenyl)pyridazin-4-yl)-3,8-diazabicyclo[3.2.1]octan-8-yl)pyridin-2-yl)oxy)ethyl)piperazin-1-yl)ethoxy)isoxazol-5-yl)-3-methylbutanoyl)-4-hydroxy-N-((S)-1-(4-(5-methyl-1H-1,2,3-triazol-1-yl)phenyl)ethyl)pyrrolidine-2-carboxamide], under setting [3], the DC50 is greater than 30 nM. On to `Cc1ncsc1-c1ccc([C@H](C)NC(=O)[C@@H]2C[C@@H](O)CN2C(=O)[C@H](c2cc(OCCC3CCN(C[C@H]4C[C@H](C#CC(C)n5cc(-c6cc(-c7ccccc7O)nnc6N)cn5)C4)CC3)no2)C(C)C)cc1` (stereo partly drawn) [compound 633, (2S,4R)-1-((2R)-2-(3-(2-(1-(((1r,3R)-3-(3-(4-(3-amino-6-(2-hydroxyphenyl)pyridazin-4-yl)-1H-pyrazol-1-yl)but-1-yn-1-yl)cyclobutyl)methyl)piperidin-4-yl)ethoxy)isoxazol-5-yl)-3-methylbutanoyl)-4-hydroxy-N-((S)-1-(4-(4-methylthiazol-5-yl)phenyl)ethyl)pyrrolidine-2-carboxamide], for which the DC50 under setting [3] is less than 2.5 nM. Besides, under setting [4], the greatest degradation seen (Dmax) was greater than 75%. Regarding `Cc1ncsc1-c1ccc([C@H](C)NC(=O)[C@@H]2C[C@@H](O)CN2C(=O)[C@H](c2cc(OCC[C@H]3CC[C@H](O[C@H]4C[C@H](Oc5cc(N6C7CCC6CN(c6cc(-c8ccccc8O)nnc6N)C7)ccn5)C4)CC3)no2)C(C)C)cc1` [compound 487, (2S,4R)-1-((2S)-2-(3-(2-((1R,4S)-4-((1r,3S)-3-((4-(3-(3-amino-6-(2-hydroxyphenyl)pyridazin-4-yl)-3,8-diazabicyclo[3.2.1]octan-8-yl)pyridin-2-yl)oxy)cyclobutoxy)cyclohexyl)ethoxy)isoxazol-5-yl)-3-methylbutanoyl)-4-hydroxy-N-((S)-1-(4-(4-methylthiazol-5-yl)phenyl)ethyl)pyrrolidine-2-carboxamide], the DC50 (target protein degradation, read-out: BRM DC50) was greater than 30 nM.

For `Cc1ncsc1-c1ccc([C@H](C)NC(=O)[C@@H]2C[C@@H](O)CN2C(=O)[C@@H](c2cc(N3CCC(N4CCC(O[C@H]5C[C@H](Oc6cc(N7C8CCC7CN(c7cc(-c9ccccc9O)nnc7N)C8)ccn6)C5)CC4)CC3)no2)C(C)C)cc1` [compound 685, (2S,4R)-1-((2R)-2-(3-(4-((1r,3R)-3-((4-(3-(3-amino-6-(2-hydroxyphenyl)pyridazin-4-yl)-3,8-diazabicyclo[3.2.1]octan-8-yl)pyridin-2-yl)oxy)cyclobutoxy)-[1,4'-bipiperidin]-1'-yl)isoxazol-5-yl)-3-methylbutanoyl)-4-hydroxy-N-((S)-1-(4-(4-methylthiazol-5-yl)phenyl)ethyl)pyrrolidine-2-carboxamide], the DC50 under setting [3] was less than 2.5 nM. For the same molecule, the Dmax under setting [4] was greater than 75%.

The values above are taken from US12539292B2, “BRM targeting compounds and associated methods of use” (Arvinas Operations, Inc., priority 2018, dated 2026).
